US8846933B2, “N-link hydroxamic acid derivatives useful as antibacterial agents” (Pfizer Inc., priority 2009, dated 2014)

Assays:
[1] = test system: Pseudomonas aeruginosa UI-18: Wild-type (PA-7); test: MIC determination (CLSI), strain PA-7; type: cell-based; settings: strain PA-7; generated in the same manner as in Table 4; unit assumed
Description: (§1) The in vitro antibacterial activity of compounds described in the Examples was evaluated by minimum inhibitory concentration (MIC) testing according to Clinical and Laboratory Standards Institute (CLSI, formerly NCCLS) guidelines. See: Clinical and Laboratory Standards Institute. Methods for Dilution Antimicrobial Susceptibility Tests for Bacteria that Grow Aerobically; Approved Standard-Seventh Edition. CLSI document M7-A7 [ISBN 1-56238-587-9]. Clinical and Laboratory Standards Institute, 940 West Valley Road, Suite 1400, Wayne, Pa. 19087-1898 USA, 2006; also Clinical and Laboratory Standards Institute. Performance Standards for Antimicrobial Susceptibility Testing; Eighteenth Informational Supplement. CLSI document M100-S18 [ISBN1-56238-653-0].Clinical and Laboratory Standards Institute.
(§2) The following bacterial strains were used in these MIC determinations:
1) Pseudomonas aeruginosa UI-18: Wild-type, labeled as PA-7 in Tables 4, and 5;

[2] = test system: Escherichia coli EC-1: VOGEL, mouse virulent; test: MIC determination (CLSI), strain EC-1; type: cell-based; settings: strain EC-1; generated in the same manner as in Table 4; unit assumed
Description: as §1, §2
3) Escherichia coli EC-1: VOGEL, mouse virulent labeled as EC-1 in Tables 4 and 5;

With `CC(CCn1ccc(-c2ccccc2C#N)cc1=O)(C(=O)NO)S(C)(=O)=O` (stereo not drawn) [Example 132, 4-[4-(2-cyanophenyl)-2-oxopyridin-1(2H)-yl]-N-hydroxy-2-methyl-2-(methylsulfonyl)butanamide] the PA-7 (MIC) [1] was > 64 µg/mL and the EC-1 (MIC) [2] was > 64 µg/mL.

For `CC(=O)Nc1cccc(-c2ccn(CCC(C)(C(=O)NO)S(C)(=O)=O)c(=O)c2)c1` (stereo not drawn) [Example 133, 4-[4-(3-acetamidophenyl)-2-oxopyridin-1(2H)-yl]-N-hydroxy-2-methyl-2-(methylsulfonyl)butanamide], the PA-7 (MIC) [1] was > 64 µg/mL and the EC-1 (MIC) [2] was > 64 µg/mL.

`CC(CCn1ccc(-c2ccc(F)c(F)c2)cc1=O)(C(=O)NO)S(C)(=O)=O` (stereo not drawn) [Example 134, 4-[4-(3,4-difluorophenyl)-2-oxopyridin-1(2H)-yl]-N-hydroxy-2-methyl-2-(methylsulfonyl)butanamide] gave a PA-7 (MIC) [1] of 4 µg/mL and an EC-1 (MIC) [2] of 4 µg/mL.

`CC(CCn1ccc(-c2ccc(Cl)c(C#N)c2)cc1=O)(C(=O)NO)S(C)(=O)=O` (stereo not drawn) [Example 135, 4-[4-(4-chloro-3-cyanophenyl)-2-oxopyridin-1(2H)-yl]-N-hydroxy-2-methyl-2-(methylsulfonyl)butanamide] was tested, and the PA-7 (MIC) [1] was 16 µg/mL and the EC-1 (MIC) [2] was 16 µg/mL.

`CCS(=O)(=O)c1ccc(-c2ccn(CCC(C)(C(=O)NO)S(C)(=O)=O)c(=O)c2)cc1` (stereo not drawn) [Example 136, 4-{4-[4-(ethylsulfonyl)phenyl]-2-oxopyridin-1(2H)-yl}-N-hydroxy-2-methyl-2-(methylsulfonyl)butanamide] was tested, and the PA-7 (MIC) [1] was 64 µg/mL and the EC-1 (MIC) [2] was > 64 µg/mL.

In the case of `CC(CCn1ccc(-c2cc(F)ccc2OC(F)(F)F)cc1=O)(C(=O)NO)S(C)(=O)=O` (stereo not drawn) [Example 137, 4-{4-[5-fluoro-2-(trifluoromethoxy)phenyl]-2-oxopyridin-1(2H)-yl}-N-hydroxy-2-methyl-2-(methylsulfonyl)butanamide], the PA-7 (MIC) [1] is reported as > 64 µg/mL and the EC-1 (MIC) [2] is reported as > 64 µg/mL.

Compound `COc1ccc(-c2ccn(CCC(C)(C(=O)NO)S(C)(=O)=O)c(=O)c2)cc1OC` (stereo not drawn) [Example 138, 4-[4-(3,4-dimethoxyphenyl)-2-oxopyridin-1(2H)-yl]-N-hydroxy-2-methyl-2-(methylsulfonyl)butanamide] has a PA-7 (MIC) [1] of 64 µg/mL and an EC-1 (MIC) [2] of 64 µg/mL.

For `COc1ccc(Oc2ccc(-c3ccn(CCC(C)(C(=O)NO)S(C)(=O)=O)c(=O)c3)cc2)cc1` (stereo not drawn) [Example 139, N-hydroxy-4-{4-[4-(4-methoxyphenoxy)phenyl]-2-oxopyridin-1(2H)-yl}-2-methyl-2-(methylsulfonyl)butanamide], the PA-7 (MIC) [1] was 8 µg/mL and the EC-1 (MIC) [2] was 0.125 µg/mL.

With `CC(=O)c1ccccc1-c1ccn(CCC(C)(C(=O)NO)S(C)(=O)=O)c(=O)c1` (stereo not drawn) [Example 140, 4-[4-(2-acetylphenyl)-2-oxopyridin-1(2H)-yl]-N-hydroxy-2-methyl-2-(methylsulfonyl)butanamide] the PA-7 (MIC) [1] was > 64 µg/mL and the EC-1 (MIC) [2] was > 64 µg/mL.

In the case of `CC(CCn1ccc(-c2ccc(Cl)cc2)cc1=O)(C(=O)NO)S(C)(=O)=O` (stereo not drawn) [Example 141, 4-[4-(4-chlorophenyl)-2-oxopyridin-1(2H)-yl]-N-hydroxy-2-methyl-2-(methylsulfonyl)butanamide], the PA-7 (MIC) [1] is reported as 1 µg/mL and the EC-1 (MIC) [2] is reported as 1 µg/mL.

Compound `CC(CCn1ccc(-c2ccc(Cl)c(F)c2)cc1=O)(C(=O)NO)S(C)(=O)=O` (stereo not drawn) [Example 142, 4-[4-(4-chloro-3-fluorophenyl)-2-oxopyridin-1(2H)-yl]-N-hydroxy-2-methyl-2-(methylsulfonyl)butanamide] has a PA-7 (MIC) [1] of 1 µg/mL and an EC-1 (MIC) [2] of 1 µg/mL.

With `CC(CCn1ccc(-c2cccc(C(F)(F)F)c2)cc1=O)(C(=O)NO)S(C)(=O)=O` (stereo not drawn) [Example 143, N-hydroxy-2-methyl-2-(methylsulfonyl)-4-{2-oxo-4-[3-(trifluoromethyl)phenyl]pyridin-1(2H)-yl}butanamide] the PA-7 (MIC) [1] was 8 µg/mL and the EC-1 (MIC) [2] was 4 µg/mL.

With `CC(CCn1ccc(-c2cccc(CO)c2)cc1=O)(C(=O)NO)S(C)(=O)=O` (stereo not drawn) [Example 144, N-hydroxy-4-{4-[3-(hydroxymethyl)phenyl]-2-oxopyridin-1(2H)-yl}-2-methyl-2-(methylsulfonyl)butanamide] the PA-7 (MIC) [1] was > 64 µg/mL and the EC-1 (MIC) [2] was > 64 µg/mL.

Compound `CC(CCn1ccc(-c2ccc(OC(F)(F)F)cc2)cc1=O)(C(=O)NO)S(C)(=O)=O` (stereo not drawn) [Example 145, N-hydroxy-2-methyl-2-(methylsulfonyl)-4-{2-oxo-4-[4-(trifluoromethoxy)phenyl]pyridin-1(2H)-yl}butanamide] has a PA-7 (MIC) [1] of 2 µg/mL and an EC-1 (MIC) [2] of 1 µg/mL.

In the case of `CC(C)NC(=O)c1ccc(-c2ccn(CCC(C)(C(=O)NO)S(C)(=O)=O)c(=O)c2)cc1` (stereo not drawn) [Example 146, 4-{1-[4-(hydroxyamino)-3-methyl-3-(methylsulfonyl)-4-oxobutyl]-2-oxo-1,2-dihydropyridin-4-yl}-N-isopropylbenzamide], the PA-7 (MIC) [1] is reported as > 64 µg/mL and the EC-1 (MIC) [2] is reported as > 64 µg/mL.

Work on `CC(CCn1ccc(-c2cccc(F)c2F)cc1=O)(C(=O)NO)S(C)(=O)=O` (stereo not drawn) [Example 147, 4-[4-(2,3-difluorophenyl)-2-oxopyridin-1(2H)-yl]-N-hydroxy-2-methyl-2-(methylsulfonyl)butanamide] yielded a PA-7 (MIC) [1] of 1 µg/mL and an EC-1 (MIC) [2] of 2 µg/mL.

With `CN(C)S(=O)(=O)c1cccc(-c2ccn(CCC(C)(C(=O)NO)S(C)(=O)=O)c(=O)c2)c1` (stereo not drawn) [Example 148, 4-[4-{3-[(dimethylamino)sulfonyl]phenyl}-2-oxopyridin-1(2H)-yl]-N-hydroxy-2-methyl-2-(methylsulfonyl)butanamide] the PA-7 (MIC) [1] was > 64 µg/mL and the EC-1 (MIC) [2] was 64 µg/mL.

`CC(CCn1ccc(-c2ccc(C#N)s2)cc1=O)(C(=O)NO)S(C)(=O)=O` (stereo not drawn) [Example 149, 4-[4-(5-cyano-2-thienyl)-2-oxopyridin-1(2H)-yl]-N-hydroxy-2-methyl-2-(methylsulfonyl)butanamide] was tested, and the PA-7 (MIC) [1] was 16 µg/mL and the EC-1 (MIC) [2] was 16 µg/mL.

For `CC(CCn1ccc(-c2cc(Cl)ccc2F)cc1=O)(C(=O)NO)S(C)(=O)=O` (stereo not drawn) [Example 150, 4-[4-(5-chloro-2-fluorophenyl)-2-oxopyridin-1(2H)-yl]-N-hydroxy-2-methyl-2-(methylsulfonyl)butanamide], the PA-7 (MIC) [1] was 4 µg/mL and the EC-1 (MIC) [2] was 4 µg/mL.

Compound `Cc1ccc(-c2ccn(CCC(C)(C(=O)NO)S(C)(=O)=O)c(=O)c2)cc1F` (stereo not drawn) [Example 151, 4-[4-(3-fluoro-4-methylphenyl)-2-oxopyridin-1(2H)-yl]-N-hydroxy-2-methyl-2-(methylsulfonyl)butanamide] has a PA-7 (MIC) [1] of 2 µg/mL and an EC-1 (MIC) [2] of 2 µg/mL.

In the case of `CCCn1cc(-c2ccn(CCC(C)(C(=O)NO)S(C)(=O)=O)c(=O)c2)cn1` (stereo not drawn) [Example 152, N-hydroxy-2-methyl-2-(methylsulfonyl)-4-[2-oxo-4-(1-propyl-1H-pyrazol-4-yl)pyridin-1(2H)-yl]butanamide], the PA-7 (MIC) [1] is reported as > 64 µg/mL and the EC-1 (MIC) [2] is reported as > 64 µg/mL.

`Cc1c(F)cccc1-c1ccn(CCC(C)(C(=O)NO)S(C)(=O)=O)c(=O)c1` (stereo not drawn) [Example 153, 4-[4-(3-fluoro-2-methylphenyl)-2-oxopyridin-1(2H)-yl]-N-hydroxy-2-methyl-2-(methylsulfonyl)butanamide] gave a PA-7 (MIC) [1] of 8 µg/mL and an EC-1 (MIC) [2] of 32 µg/mL.

For `CC(C)(C)NC(=O)c1cncc(-c2ccn(CCC(C)(C(=O)NO)S(C)(=O)=O)c(=O)c2)c1` (stereo not drawn) [Example 154, N-tert-butyl-1′-[4-(hydroxyamino)-3-methyl-3-(methylsulfonyl)-4-oxobutyl]-2′-oxo-1′,2′-dihydro-3,4′-bipyridine-5-carboxamide], the PA-7 (MIC) [1] was > 64 µg/mL and the EC-1 (MIC) [2] was > 64 µg/mL.

In the case of `CC(CCn1ccc(-c2ccc(F)cc2Cl)cc1=O)(C(=O)NO)S(C)(=O)=O` (stereo not drawn) [Example 155, 4-[4-(2-chloro-4-fluorophenyl)-2-oxopyridin-1(2H)-yl]-N-hydroxy-2-methyl-2-(methylsulfonyl)butanamide], the PA-7 (MIC) [1] is reported as 0.5 µg/mL and the EC-1 (MIC) [2] is reported as 4 µg/mL.

For `CC(CCn1ccc(-c2ccc(Oc3ccccc3)cc2)cc1=O)(C(=O)NO)S(C)(=O)=O` (stereo not drawn) [Example 156, N-hydroxy-2-methyl-2-(methylsulfonyl)-4-[2-oxo-4-(4-phenoxyphenyl)pyridin-1(2H)-yl]butanamide], the PA-7 (MIC) [1] was 4 µg/mL and the EC-1 (MIC) [2] was < 0.06 µg/mL.

For `CC(CCn1ccc(-c2cccc(F)c2Cl)cc1=O)(C(=O)NO)S(C)(=O)=O` (stereo not drawn) [Example 157, 4-[4-(2-chloro-3-fluorophenyl)-2-oxopyridin-1(2H)-yl]-N-hydroxy-2-methyl-2-(methylsulfonyl)butanamide], the PA-7 (MIC) [1] was 2 µg/mL and the EC-1 (MIC) [2] was 4 µg/mL.

`Cc1ccc(-c2ccn(CCC(C)(C(=O)NO)S(C)(=O)=O)c(=O)c2)o1` (stereo not drawn) [Example 158] showed a PA-7 (MIC) [1] of 64 µg/mL and an EC-1 (MIC) [2] of 64 µg/mL.

Work on `CC(CCn1ccc(-c2ccccc2F)cc1=O)(C(=O)NO)S(C)(=O)=O` (stereo not drawn) [Example 159, 4-[4-(2-fluorophenyl)-2-oxopyridin-1(2H)-yl]-N-hydroxy-2-methyl-2-(methylsulfonyl)butanamide] yielded a PA-7 (MIC) [1] of 2 µg/mL and an EC-1 (MIC) [2] of 2 µg/mL.

In the case of `Cc1ccc(S(=O)(=O)N(C)C)cc1-c1ccn(CCC(C)(C(=O)NO)S(C)(=O)=O)c(=O)c1` (stereo not drawn) [Example 160, 4-[4-{5-[(dimethylamino)sulfonyl]-2-methylphenyl}-2-oxopyridin-1(2H)-yl]-N-hydroxy-2-methyl-2-(methylsulfonyl)butanamide], the PA-7 (MIC) [1] is reported as > 64 µg/mL and the EC-1 (MIC) [2] is reported as > 64 µg/mL.

In the case of `COc1ccc(-c2ccn(CCC(C)(C(=O)NO)S(C)(=O)=O)c(=O)c2)c(OC)c1` (stereo not drawn) [Example 161, 4-[4-(2,4-dimethoxyphenyl)-2-oxopyridin-1(2H)-yl]-N-hydroxy-2-methyl-2-(methylsulfonyl)butanamide], the PA-7 (MIC) [1] is reported as 8 µg/mL and the EC-1 (MIC) [2] is reported as 8 µg/mL.
